The results in this text go back to patent US20060251654A1, “Method for treatment of malignant and infectious chronic diseases” (Centro de Inmunologia Molecular, priority 2001, published 2006).

In the assay the test system is syngeneic tumor 3LL-D122. In words: Survival of mice bearing 3LL-D122 tumor after surgery of the primary tumor (Examples 5 and 6). It counts as in vivo, C57BL/6 mice. As to conditions: EGF-p64 vaccine i.m., two weeks later Cyclophosphamide 50 mg/kg i.v., three days later second vaccine dose; versus vaccine plus saline or Cyclophosphamide only. The protocol:
C57BL/6 mice were injected with the syngeneic tumor 3LL-D122 (200,000 cells/animal) in the right plantar pad. The evolution of the tumor was evaluated by measurement of its diameters every 3 days and surgery of the primary tumor was practiced (amputation) when it reached 8-9 mm of diameter. Mice survival, which is depended of spontaneous lung metastases was measured.
Two days after the inoculation of the tumor mice were injected by intramuscular route with a vaccine that contains 4 μg of human EGF conjugated to the p64 protein (EGF-p64) in Montanide ISA 51 (100 μl final volume) and two weeks later they were treated with 50 mg/kg of Cyclophosphamide by intravenous route or with saline solution. After three days, the mice were re-immunized by intramuscular route with a second dose of the EGF-p64 vaccine.
An animal group just was treated by intravenous route with 50 mg/kg of Cyclophosphamide and another one was not treated.
C57BL/6 mice were injected with the syngenic tumor 3LL-D122 as it is described in Example 5.
Two days after to the inoculation of the tumor, mice were injected by intramuscular route with a vaccine that contains 4 μg of human EGF conjugated to the P64 protein (EGF-p64) in Montanide ISA 51 (100 μl final volume) and two weeks later they were treated with 1 mg of anti-CD25 monoclonal antibody by intravenous route or with saline solution as control. […]

The structures appear in SMILES notation.

As for `O=P1(N(CCCl)CCCl)NCCCO1` (stereo not shown) [Cyclophosphamide], the mice survival entry is on record as “increases the mice survival”.
